Source: US20250032625A1, “HETEROBIFUNCTIONAL MOLECULES AS TEAD INHIBITORS” (Merck Patent GmbH, priority 2021, published 2025)
Like-named read-outs stand apart in the source and are kept apart here.

How the values were obtained:
TEAD1 in SK-HEP1 cells = TEAD1 in SK-HEP1 cells (Homo sapiens (Human), UniProt P28347); test: TEAD degradation in SK-HEP1 cell line (immunofluorescence); format: cell-based
Procedure: (§1) Degradation of TEAD isoform TEAD1 by exemplary compounds which has been determined at different time points in two different cell lines, SK-HEP1 and NCI-H226: For the assay, SK-HEP1 (ATCC HTB-52) and NCI-H226 (ATCC CRL-5826) cells were treated in duplicates with the test compounds in a 10-point dose, 1:3 dilution steps, with the top concentration starting at 30 uM (final concentration in assay). After either 16 or 24 hour incubation at 37° C., 95% rH, and 5% CO2, the cells were fixed with 4% PFA and TEAD1 levels were probed using immunofluorescence. The primary antibody used was Anti-TEF1 (BD, 610293) and the secondary antibody used was Alexa Fluor® 488 Goat Anti-Mouse IgG (H+L) (Molecular Probes, A-11001). Finally, the cell nuclei were co-stained by Hoechst 33258 (Invitrogen, H-3569) and imaged using a high content imager. The amount of TEAD degradation was determined by quantifying the fluorescence intensity levels of Anti-TEF1 in each individual cell per well. DC50 was calculated using curve fitting software Genedata Screener. Cell media: The SK-HEP1 cells were cultured in the following media: MEM, +10% FCS, +1× GlutaMAX, +100 μM NEAA, +10 mM HEPES, +0.5% Pen/Strep. The NCI-H226 cells were cultured in the following media: RPMI 1640, +10% FBS, +1× GlutaMAX, +10 mM HEPES, +0.5% Pen/Strep.

TEAD1 in NCI-H226 cells = TEAD1 in NCI-H226 cells (Homo sapiens (Human), UniProt P28347); test: TEAD degradation in NCI-H226 cell line (immunofluorescence); format: cell-based
Procedure: as §1

[1] = 24 hours, ranges, read-out: DC50 SK-HEP1
[2] = 24 hours, ranges, read-out: DC50 NCI-H226
[3] = 24 h incubation, read-out: DC50 NCI-H226 24 h

Sequence of TEAD1 in NCI-H226 cells (P28347 whole entry): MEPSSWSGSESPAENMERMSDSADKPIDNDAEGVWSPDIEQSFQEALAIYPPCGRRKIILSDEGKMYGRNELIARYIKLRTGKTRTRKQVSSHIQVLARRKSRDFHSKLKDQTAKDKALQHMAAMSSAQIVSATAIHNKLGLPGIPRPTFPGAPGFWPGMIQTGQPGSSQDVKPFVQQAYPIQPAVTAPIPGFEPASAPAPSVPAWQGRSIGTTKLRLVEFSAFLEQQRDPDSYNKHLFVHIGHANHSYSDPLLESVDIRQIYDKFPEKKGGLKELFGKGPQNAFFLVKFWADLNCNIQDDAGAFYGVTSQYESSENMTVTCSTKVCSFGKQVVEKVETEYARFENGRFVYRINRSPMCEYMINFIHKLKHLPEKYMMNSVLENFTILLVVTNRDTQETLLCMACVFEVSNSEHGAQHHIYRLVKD
Sequence of TEAD1 in SK-HEP1 cells (P28347 whole entry, canonical isoform): as the sequence (P28347 whole entry) above

DC50 (TEAD1 in SK-HEP1 cells; [1]) | DC50 (TEAD1 in NCI-H226 cells; [2]) | DC50 (TEAD1 in SK-HEP1 cells; 24 h incubation, read-out: DC50 SK-HEP1 24 h) | DC50 (TEAD1 in NCI-H226 cells; [3]) | Compound
0.1 to 1 µM | 0.1 to 1 µM |  |  | Cc1ncsc1-c1ccc([C@H](C)NC(=O)[C@@H]2C[C@@H](O)CN2C(=O)[C@@H](NC(=O)CCCCCc2cn(CCCCOCCNC(=O)c3ccc4c(c3)c3cn(C)nc3n4-c3ccc(C(F)(F)F)cc3)nn2)C(C)(C)C)cc1 [Compound 82, (2S,4R)-1-[(2S)-3,3-dimethyl-2-[6-(1 {4-[2-({2-methyl-8-[4-(trifluoro-methyl)phenyl]-2H,8H-pyrazolo[3,4-b]indol-5-yl}formamido)ethoxy]butyl}-1H-1,2,3-triazol-4-yl)hexanamido]butanoyl]-4-hydroxy-N-[(1S)-1-[4-(4-methyl-1,3-thiazol-5-yl)phenyl]ethyl]pyrrolidine-2-carboxamide]
1 to 3 µM | 9 to 30 µM | 2.4 µM | 20 µM | Cn1cc2c3cc(C(=O)NCCOCCOCCNC(=O)COc4ccc5c(c4)C(=O)N(C4CCC(=O)NC4=O)C5=O)ccc3n(-c3ccc(C(F)(F)F)cc3)c2n1 (stereo not drawn) [Compound 7, 2-{[2-(2,6-dioxopiperidin-3-yl)-1,3-dioxo-2,3-dihydro-1H-isoindol-5-yl]oxy}-N-(2-{2-[2-({2-methyl-8-[4-(trifluoromethyl)phenyl]-2H,8H-pyrazolo[3,4-b]indol-5-yl}formamido)ethoxy]ethoxy}ethyl)acetamide]
1 to 3 µM | 1 to 3 µM |  |  | Cc1ncsc1-c1ccc(CNC(=O)[C@@H]2C[C@@H](O)CN2C(=O)[C@@H](NC(=O)CCCOCCOCCOCCOCCNC(=O)c2ccc3c(c2)c2cn(C)nc2n3-c2ccc(C(F)(F)F)cc2)C(C)(C)C)cc1 [Compound 57, [(2S)-3,3-dimethyl-2-[1-({2-methyl-8-[4-(trifluoromethyl)phenyl]-2H,8H-pyrazolo[3,4-b]indol-5-yl}formamido)-3,6,9,12-tetraoxahexadecan-16-amido]butanoyl]-4-hydroxy-N-{[4-(4-methyl-1,3-thiazol-5-yl)phenyl]-methyl}pyrrolidine-2-carboxamide]
0.1 to 1 µM | 0.1 to 1 µM |  |  | Cc1ncsc1-c1ccc(CNC(=O)[C@@H]2C[C@@H](O)CN2C(=O)[C@@H](NC(=O)CCCCCCCCCOCCOCCNC(=O)c2ccc3c(c2)c2cn(C)nc2n3-c2ccc(C(F)(F)F)cc2)C(C)(C)C)cc1 [Compound 56]
0.1 to 1 µM | 0.1 to 1 µM |  |  | Cc1ncsc1-c1ccc(CNC(=O)[C@@H]2C[C@@H](O)CN2C(=O)[C@@H](NC(=O)CCCCCC(=O)NCCOCCOCCNC(=O)c2ccc3c(c2)c2nn(C)nc2n3-c2ccc(C(F)(F)F)cn2)C(C)(C)C)cc1 [Compound 55, N-[(2S)-1-[(2S,4R)-4-hydroxy-2-({[4-(4-methyl-1,3-thiazol-5-yl)phenyl]methyl}carbamoyl)pyrrolidin-1-yl]-3,3-dimethyl-1-oxobutan-2-yl]-N′-(2-{2-[2-({2-methyl-4-[5-(trifluoromethyl)pyridin-2-yl]-2H,4H-[1,2,3]triazolo[4,5-b]indol-7-yl}formamido)ethoxy]ethoxy}ethyl)-heptanediamide]
 | 1 to 3 µM |  |  | Cn1cc2c3cc(C(=O)NCCOCCOCCNC(=O)CCCCCCNc4cccc5c4CN(C4CCC(=O)NC4=O)C5=O)ccc3n(-c3ccc(C(F)(F)F)cc3)c2n1 (stereo not drawn) [Compound 15, 7-{[2-(2,6-dioxopiperidin-3-yl)-1-oxo-2,3-dihydro-1H-isoindol-4-yl]amino}-N-(2-{2-[2-({2-methyl-8-[4-(trifluoromethyl)phenyl]-2H,8H-pyrazolo[3,4-b]indol-5-yl}formamido)ethoxy]ethoxy}ethyl) heptanamide]

Further lines, the compound ahead of its results:

Compound | DC50 (TEAD1 in SK-HEP1 cells; [1]) | DC50 (TEAD1 in NCI-H226 cells; [2]) | DC50 (TEAD1 in SK-HEP1 cells; 24 h incubation, read-out: DC50 SK-HEP1 24 h) | DC50 (TEAD1 in NCI-H226 cells; [3])
Cc1ncsc1-c1ccc(CNC(=O)[C@@H]2C[C@@H](O)CN2C(=O)[C@@H](NC(=O)CCOCCC(=O)NCCOCCOCCNC(=O)c2ccc3c(c2)c2cn(C)nc2n3-c2ccc(C(F)(F)F)cc2)C(C)(C)C)cc1 [Compound 61, (2S,4R)-1-[(2S)-3,3-dimethyl-2-(3-{2-[(2-{2-[2-({2-methyl-8-[4-(trifluoro-methyl)phenyl]-2H,8H-pyrazolo[3,4-b]indol-5-yl}formamido)-ethoxy]ethoxy}ethyl)carbamoyl]ethoxy}propanamido)butanoyl]-4-hydroxy-N-{[4-(4-methyl-1,3-thiazol-5-yl)phenyl]methyl}pyrrolidine-2-carboxamide] | 3 to 9 µM | 3 to 9 µM |  | 
Cc1ncsc1-c1ccc(CNC(=O)[C@@H]2C[C@@H](O)CN2C(=O)[C@@H](NC(=O)CCCCCCOCCNC(=O)c2ccc3c(c2)c2cn(C)nc2n3-c2ccc(C(F)(F)F)cc2)C(C)(C)C)cc1 [Compound 77, (2S,4R)-1-[(2S)-3,3-dimethyl-2-{7-[2-({2-methyl-8-[4-(trifluoromethyl)-phenyl]-2H,8H-pyrazolo[3,4-b]indol-5-yl}formamido)ethoxy]heptanamido}-butanoyl]-4-hydroxy-N-{[4-(4-methyl-1,3-thiazol-5-yl)phenyl]methyl}-pyrrolidine-2-carboxamide] | 0.1 to 1 µM |  |  | 
Cc1ncsc1-c1ccc(CNC(=O)[C@@H]2C[C@@H](O)CN2C(=O)[C@@H](NC(=O)CCCCCc2cnnn2CCCCCCCNC(=O)c2ccc3c(c2)c2cn(C)nc2n3-c2ccc(C(F)(F)F)cc2)C(C)(C)C)cc1 [Compound 37, (2S,4R)-1-[(2S)-3,3-dimethyl-2-(6-{1-[7-({2-methyl-8-[4-(trifluoromethyl)-phenyl]-2H,8H-pyrazolo[3,4-b]indol-5-yl}formamido)heptyl]-1H-1,2,3-triazol-5-yl}hexanamido)butanoyl]-4-hydroxy-N-{[4-(4-methyl-1,3-thiazol-5-yl)phenyl]methyl}pyrrolidine-2-carboxamide] | 0.1 to 1 µM | 0.1 to 1 µM |  | 
Cn1cc2c3cc(C(=O)NCCOCCOCCOCCOCCOc4ccc5c(c4)C(=O)N(C4CCC(=O)NC4=O)C5=O)ccc3n(-c3ccc(C(F)(F)F)cc3)c2n1 (stereo not drawn) [Compound 88, N-(14-{[2-(2,6-dioxopiperidin-3-yl)-1,3-dioxo-2,3-dihydro-1H-isoindol-5-yl]oxy}-3,6,9,12-tetraoxatetradecan-1-yl)-2-methyl-8-[4-(trifluoromethyl)phenyl]-2H,8H-pyrazolo[3,4-b]indole-5-carboxamide] | 0.1 to 1 µM | 0.1 to 1 µM |  | 
Cn1nc2c3cc(C(=O)NCCOCCOCCOCCOCCNc4cccc5c4C(=O)N(C4CCC(=O)NC4=O)C5=O)ccc3n(-c3ccc(C(F)(F)F)cc3)c2n1 (stereo not drawn) [Compound 45, N-(14-{[2-(2,6-dioxopiperidin-3-yl)-1,3-dioxo-2,3-dihydro-1H-isoindol-4-yl]amino}-3,6,9,12-tetraoxatetradecan-1-yl)-2-methyl-4-[4-(trifluoromethyl)phenyl]-2H,4H-[1,2,3]triazolo[4,5-b]indole-7-carboxamide] | 0.1 to 1 µM | < 0.1 µM |  | 
CCNC(=O)[C@H](Cc1ccc(F)cc1)NC(=O)[C@@H]1CCCN1C(=O)[C@@H](NC(=O)[C@H](C)NCCOCCOCCOCCNC(=O)c1ccc2c(c1)c1cn(C)nc1n2-c1ccc(C(F)(F)F)cc1)C1CCCCC1 (stereo in doubt) [Compound 69, (13S)—N-[(1S)-1-cyclohexyl-2-[(2S)-2-{[(1S)-1-(ethylcarbamoyl)-2-(4-fluorophenyl)ethyl]carbamoyl}pyrrolidin-1-yl]-2-oxoethyl]-13-methyl-1-({2-methyl-8-[4-(trifluoromethyl)phenyl]-2H,8H-pyrazolo[3,4-b]indol-5-yl}form-amido)-3,6,9-trioxa-12-azatetradecan-14-amide] | 3 to 9 µM | 9 to 30 µM |  | 
Cc1ncsc1-c1ccc(CNC(=O)[C@@H]2C[C@@H](O)CN2C(=O)[C@@H](NC(=O)CCCCCC(=O)N(C)CCOCCOCCNC(=O)c2ccc3c(c2)c2cn(C)nc2n3-c2ccc(C(F)(F)F)cc2)C(C)(C)C)cc1 [Compound 53, N-[(2S)-1-[(2S,4R)-4-hydroxy-2-({[4-(4-methyl-1,3-thiazol-5-yl)phenyl]-methyl}carbamoyl)pyrrolidin-1-yl]-3,3-dimethyl-1-oxobutan-2-yl]-N′-methyl-N′-(2-{2-[2-({2-methyl-8-[4-(trifluoromethyl)phenyl]-2H,8H-pyrazolo[3,4-b]indol-5-yl}formamido)ethoxy]ethoxy}ethyl) heptanediamide] | 0.1 to 1 µM | 0.1 to 1 µM |  | 
Cn1cc2c3cc(C(=O)NCCOCCOCCOCCNc4cccc5c4C(=O)N(C4CCC(=O)NC4=O)C5=O)ccc3n(-c3ccc(C(F)(F)F)cc3)c2n1 (stereo not drawn) [Compound 50, N-(2-{2-[2-(2-{[2-(2,6-dioxopiperidin-3-yl)-1,3-dioxo-2,3-dihydro-1H-iso-indol-4-yl]amino}ethoxy)ethoxy]ethoxy}ethyl)-2-methyl-8-[4-(trifluoro-methyl)phenyl]-2H,8H-pyrazolo[3,4-b]indole-5-carboxamide] | 9 to 30 µM | < 0.1 µM |  | 
Cn1cc2c3cc(C(=O)NCCOCCOCCOCCOCCOCC(=O)Nc4cccc5c4C(=O)N(C4CCC(=O)NC4=O)C5=O)ccc3n(-c3ccc(C(F)(F)F)cc3)c2n1 (stereo not drawn) [Compound 10, N-[2-(2,6-dioxopiperidin-3-yl)-1,3-dioxo-2,3-dihydro-1H-isoindol-4-yl]-17-({2-methyl-8-[4-(trifluoromethyl)phenyl]-2H,8H-pyrazolo[3,4-b]indol-5-yl}formamido)-3,6,9,12,15-pentaoxaheptadecanamide] |  | 1 to 3 µM |  | 20 µM
